According to PubChem BioAssay AID2305 (GlaxoSmithKline (GSK), 2010):
pIC50: −log10 of the molar value. Several values for one entry are separate records, joined by “and”; a condition that tells them apart may be missing. Equal entries are not always repeated.

Tested on: P. falciparum 3D7 growth, pLDH absorbance
Assay: blood-stage malaria parasite growth potency – strain 3D7, dose response (AID 2305)

Compound | pIC50
O=C(NCCN1CCC(c2ccncc2)CC1)c1ccc(Nc2nccc(Nc3ccc(Oc4ccccc4)cc3)n2)cc1 | 6.14
Cc1cccc2[nH]c(-c3cccc(-c4cccc(NC(=O)CN5CCN(C)CC5)c4)c3)nc12 | 6.28
CCc1cc2c(Sc3nc4ccccc4[nH]3)ncnc2s1 | 6.09
COc1ccc(NC(=O)[C@H](Cc2ccccc2)Nc2cc(C)nc(NCCN3CCCC3)n2)cc1 | 5.86
CC[C@H]1CN2CC[C@H]1C[C@H]2[C@H](O)c1cc(-c2cccc(F)c2)nc2ccc(OC)cc12 | 7.22
O=C(NC1CC1)c1cnc(N2CCN(Cc3c(F)cccc3Cl)CC2)c(Cl)c1 | 6.04
COc1c(C2CCN(CCCCNC(=O)c3ccc(-c4ccc(Cl)cc4)c(O)c3)CC2)ccc2c1CCCC2 | 6.64
Cc1cc(N[C@@H](Cc2ccccc2)C(=O)NCCc2ccccc2)nc(NCCc2ccccc2)n1 | 6.07
O=C(Nc1cccc(-c2nn3ncccc3c2-c2ccnc(Nc3ccccc3)n2)c1)c1c(F)cccc1F | 6.14
COCC(=O)N(Cc1ccccc1-c1cccc(CNCCc2ccccc2)c1)C1CCN(Cc2ccccc2)CC1 | 5.96
COc1ccc2c(NN=Cc3ccccc3Cl)ccnc2c1 | 6.21
CC(C)(CNC(=O)[C@@H]1CCCN(CCOc2ccc(Cl)cc2)C1)c1nc(-c2ccc(Cl)c(O)c2)c(-c2ccncc2)[nH]1 | 6.06
Cc1cccc2[nH]c(-c3ccc(-c4ccc(CN5CCCC(O)C5)cc4)cc3)nc12 (stereo not given) | 6.07
CCCC(CNC(=O)c1cc2c(Cl)cc(Cl)cc2[nH]1)CNc1cc(=O)c2ccccc2[nH]1 (stereo not given) | 6.05
CCOC(=O)C1=C(C)N=c2sc(=Cc3ccccc3O)c(=O)n2C1c1ccc(OC)c2ccccc12 (stereo not given) | 5.90
Cc1[nH]c(C)c(-c2ccc(-c3ccc(F)cc3)cc2)c(=O)c1Cl | 6.18
COCC(C)n1c(SC(C)C(=O)Nc2cc([N+](=O)[O-])ccc2Cl)nc2ccccc2c1=O (stereo not given) | 6.64
CC(=O)Nc1nc(C(=O)Nc2cccc(-c3ccc(-c4nc5ccc(F)cc5[nH]4)cc3)c2)cs1 | 6.54
COc1ccc2nccc([C@@H](O)CN3CCC(NCc4nc5ccccc5[nH]4)CC3)c2c1 | 5.97
Cc1cc(NN=Cc2ccccc2F)c2cc(F)ccc2n1 | 6.52
Cc1cnccc1/C=C/c1cccc(OCCCN2CCc3ccc(S(C)(=O)=O)cc3CC2)c1 | 6.21
CN1CCC(N(Cc2ccc(-c3ccc(Cl)cc3)cc2)C(=O)Cn2c(CCc3cccc(F)c3F)cc(=O)c3ccccc32)CC1 | 6.07
CCC(C)(C)C1CCc2nc(N)nc(N)c2C1 (stereo not given) | 8.00
O=C(NCCCCN1CCC(c2ccc3c(c2O)CCCC3)CC1)c1ccc(-c2ccc(Cl)cc2)cc1 | 6.12

Compound | pIC50
Nc1ncnc2c1ncn2C(CO)Cc1ccc(O)cc1 (stereo not given) | 5.99
CC(C)CN(C)Cc1ccc(-c2ccc(-c3nc4ccccc4[nH]3)s2)cc1 | 6.12
CN(C)c1ccc(N2C(N)=NC(N)=NC23CCCC3)cc1 | 6.03
Nc1c2ccccc2nc2ccc(Cl)cc12 | 6.09
Cn1cncc1-c1cc2c(Nc3ccc(OCc4ccccc4)cc3)ncnc2cn1 | 6.57
CC(C)c1cc(N)c2cc(NC(=O)COCC(=O)Nc3ccc4nc(C(C)C)cc(N)c4c3)ccc2n1 | 6.66
O=C(NCCCCN1CCC(c2ccc3c(c2OCc2ccncc2)CCCC3)CC1)c1ccc(NC(=O)c2ccc(Cl)cc2)cc1 | 6.66
COc1cc(C=CC(=O)N2CCC3(CC2)CC(=O)c2ccccc2O3)cc(OC)c1OC | 6.12
CC(C)(C)c1ccc(CN2CCC(CNC(=O)c3cc(-c4cccc(C(F)(F)F)c4)cs3)C2)cc1 (stereo not given) | 5.99
CNc1ccc(CNCc2ccc(-c3ccc(-c4nc5ccc(F)cc5[nH]4)cc3)cc2)cc1 | 6.68
CS(=O)(=O)Cc1ccc(Nc2nccc(-c3c(-c4cccc(NC(=O)c5c(F)cccc5F)c4)nn4ccccc34)n2)cc1 | 6.82
CCN1CCN(Cc2ccc(-c3ccc(NS(=O)(=O)c4cccc5cccnc45)cc3)cc2)CC1 | 6.04
COc1ccc(NC(=O)C2c3ccccc3C(=O)N(C3CCCC3)C2c2cccs2)cc1 (stereo not given) | 5.77
Cc1cccc2[nH]c(-c3cccc(-c4ccc(CN5CCCC5CN)cc4)c3)nc12 (stereo not given) | 6.12
CCCCNC(=O)[C@@H]1CCCN1C(=O)c1ccc(O)c(-c2ccc(Cl)c(Cl)c2)c1 | 6.12
Cc1cc(N(C)C2CCN(C)C2)nc(Nc2ccccc2Cl)n1 (stereo not given) | 6.12
Cc1cc(C(=O)CN2C(=O)NC(C)(c3cccc4ccccc34)C2=O)c(C)n1Cc1ccco1 (stereo not given) | 6.20
Cc1cccc2[nH]c(-c3cccc(-c4ccc(NC(=O)C5CCCO5)cc4)c3)nc12 (stereo not given) | 6.05
CCN(CC)CCN(Cc1ccc(-c2ccc(C(F)(F)F)cc2)cc1)C(=O)c1c[nH]c2ccc(Br)cc12 | 6.02
CC(=O)Oc1c(Cl)c(C)nc(C)c1-c1ccc(Oc2ccc(Cl)cc2)cc1 | 7.52
CC(=O)CCc1ccc(OCCN(Cc2ccccc2C(F)(F)F)c2ccc(C#N)c(C(F)(F)F)c2)cc1 | 6.57
CS(=O)(=O)c1ccc2c(c1)CCN(CCC1CCC(NC(=O)C(=Cc3cccc(C#N)c3)c3ccc(-c4ccccc4)cc3)CC1)CC2 (stereo not given) | 6.08
CC(C)C[C@H](NC(=O)c1cc2cc(OCCN3CCNCC3)ccc2o1)C(=O)NC1CC[C@@H](C)N(C(=O)Nc2ccc(Cl)cc2)CC1=O (stereo not given in full) | 6.42
CCCCCCN1CCC(NCc2ccc(CN(C)C)cc2)CC1 | 5.90

Compound | pIC50
CCn1cnc2c(N3CCCC3=O)cc(C(=O)N[C@@H](Cc3ccccc3)[C@H](O)CNC3CCCCC3)cc21 | 6.24
COc1cc(Cc2cnc(N)nc2N)cc(OCCCC(=O)O)c1OC | 5.93
O=C(NC1CCC(CN2CCC(c3c[nH]c4ccccc34)CC2)CC1)c1cc(-c2ccc(F)cc2F)ccc1O (stereo not given) | 6.44
CC(C)C[C@H](NC(=O)c1ccc(OCCN2CCOCC2)cc1)C(=O)N[C@H](/C=N/NC(=O)c1ccccc1)CCc1ccccc1 | 7.22
Nc1ncc(-c2cc3ccccc3o2)c(N)n1 | 5.85
O=C(CCc1ccc(Cl)cc1Cl)NC1CCC(CN2CCC(c3c[nH]c4ccccc34)CC2)CC1 (stereo not given) | 6.05 and 6.66
CCCC(C)Nc1nc(C)cc(N[C@@H](Cc2ccccc2)C(=O)NCCOc2ccccc2)n1 (stereo not given in full) | 6.15
COc1ccc(Cn2c(Nc3cccc(C(F)(F)F)c3)nc3cc(C(=O)NC(C)C)cnc32)cc1Cl | 6.01
CCN(CC)CCOc1ccc(N(Cc2ccc(C(C)(C)C)cc2)C(=O)c2ccc(Cc3ccccc3)cc2)cc1OC | 6.11
COCCNc1nc(N2CCC(CNC(=O)c3ccc(-c4ccc(C(=O)N(C)C)cc4C)cc3)CC2)nc2cc(OC)c(OC)cc12 | 5.99
COCCNC(=O)c1ccc(OC2CCN(CC(C)=Cc3ccccc3)CC2)c(Cl)c1 | 6.19
CC[C@H](C)[C@@H](C(=O)N1CCOCC1)N1CC[C@H](NS(=O)(=O)CC(C)(C)c2ccc(Cl)cc2)C1=O | 6.26
CNc1ccc(CNCc2cccc(-c3ccc(-c4nc5ccccc5[nH]4)s3)c2)cc1 | 6.14
CC(COc1ccc2c(c1)OC(C)(C)CC2c1ccccc1)NCC(O)c1cccc(Cl)c1 (stereo not given) | 6.12
CCCN(Cc1nnc(-c2cccs2)o1)C(=O)CSc1nnnn1-c1ccc(C)c(C)c1 | 6.24
CN(C)CCCOc1cccc(NC(=O)Nc2ccc(Cl)c(Cl)c2)c1 | 6.02
COc1ccc(N(c2nc(-c3cc(Cl)ccc3Cl)cs2)C2CCNC2)cc1 (stereo not given) | 6.06
COCCN1CCN(Cc2ccc(-c3ccc(-c4nc5ccc(F)cc5[nH]4)cc3)cc2)CC1 | 6.14
Fc1ccc2c(NN=CC=Cc3ccccc3)ccnc2c1 | 6.11
CCN(CC)c1ccccc1CNC(=O)c1cc(Cl)c(N)cc1OC | 6.68
C[C@@H]1CN(c2nc(NCCc3ccc(O)cc3)nc(NCc3ccccc3-c3ccc(C(F)(F)F)cc3)n2)C[C@H](C)N1 | 6.28
O=C(Nc1cccc(CN2CCN(C(=O)c3cccc(F)c3)CC2)c1)c1ccco1 | 6.11
c1cc2nc(CCCc3nc4ccc(C5=N[C@H]6CCCC[C@H]6N5)cc4[nH]3)[nH]c2cc1C1=N[C@@H]2CCCC[C@@H]2N1 | 5.91
Oc1ccc(Nc2ccnc3cc(Cl)ccc23)cc1 | 6.13

Compound | pIC50
O=C(/C=C/c1ccc(Cl)c(Cl)c1)NCCCCCN1CCC(c2c[nH]c3c(-c4ccccc4)cccc23)CC1 | 6.60
CCCCCCCCNCc1c(O)ccc2ccccc12 | 6.13
CCN(CC)CCCC(C)N=C(Nc1ccc(C#N)cc1O)Nc1ccccc1Br (stereo not given) | 5.98
CN(C)c1ccc(C2(c3ccccc3)N=C(N)N(CCCc3ccccc3)C2=O)cc1 (stereo not given) | 6.01
CCCCCCOc1ccccc1C(=O)NCCOc1ccc(Cl)cc1 | 5.92
O=C(/C=C/c1ccc(Cl)c(Cl)c1)NCCCCCN1CCCC(CNC(=O)c2sc3ccccc3c2Cl)C1 (stereo not given) | 6.06
CC(=O)Nc1ccc(OCCCCN(Cc2ccccc2OC(F)(F)F)c2ccc(C(F)(F)F)c(C#N)c2)c(Cl)c1 | 6.28
COC(=O)c1cccc(NC(=O)NCCNc2ccnc(Nc3ccc(F)cc3)n2)c1 | 6.08
O=C(NC1CCN(Cc2ccccc2)CC1)c1ccc(-c2nc3cc(Cl)c(F)cc3[nH]2)s1 | 6.51
COc1ccc2nc(-c3ccc(F)cc3)cc([C@@H](O)[C@@H]3C[C@@H]4CCN3CC4C=NO)c2c1 (stereo not given in full) | 6.60
CC[C@H](C)CNC(=O)c1ccnc(-c2ccc(CN3CCC(N4CCCC4)CC3)cc2)c1 | 6.05
Cc1ccc(-n2[nH]c(C)c(N=Nc3cccc(-c4cccc(NC(=O)OC(C)(C)C)c4)c3O)c2=O)cc1C | 6.15
Cc1cc(Nc2nc(Nc3cccc(Cl)c3)nc3ccccc23)n[nH]1 | 6.54
CCCc1ccccc1Nc1nc(C)cc(N(CC)CCCN2CCCCC2)n1 | 6.21
CN(C)CCCNCCS(=O)(=O)c1cccc(Nc2ccc(-c3cccc(N(C)C)c3)cn2)c1 | 6.07
c1ccc(Oc2ccc(Nc3ccnc4cc(-c5ccc(CN6CCNCC6)o5)ccc34)cc2)nc1 | 6.62
CCOC(=O)c1c(C)n(-c2ccccc2)c2ccc(OC(=O)COc3ccc(Cl)cc3Cl)cc12 | 6.37
CCN(CC)CCCCCNc1c2ccc(Cl)cc2nc2ccc(OC)cc12 | 7.30
O=C(/C=C/c1ccc(Cl)c(Cl)c1)NCCCCCN1CCC(n2c(=O)[nH]c3ccccc32)CC1 | 6.06
COc1ccc(CCN(C)CCOc2ccc(NC(=O)c3cc(SC)cc4c(=O)c5ccccc5[nH]c34)cc2)cc1OC | 5.85
CCN(CCCN1CCCCC1)c1cc(C)nc(Nc2ccc(C)c(Br)c2)n1 | 6.60
CCOc1ccc2nc(N(CCCn3ccnc3)C(=O)C=Cc3cccs3)sc2c1 | 6.11
CCc1cn(C)c2c(N3CCCC3=O)cc(C(=O)N[C@@H](Cc3ccccc3)[C@H](O)CNC(C)(C)c3cccc(OC)c3)cc12 | 7.40
